Data set [1] relates to angiogenesis. Conditions: previously demonstrated; cited from earlier work.
Data set [2] concerns Human umbilical vein endothelial cells (HUVEC). Put plainly: HUVEC angiogenesis (network formation on Matrigel) assay. Conditions: 24 h incubation, 1-100 μM, read-out: Inhibition of HUVEC network formation IC50. In kind it is cell-based.
Procedure: Mebendazole was dissolved in 50 μl of DMSO and diluted with endothelial growth medium (EGM) to a final concentration of 1 mM. The highest concentration of DMSO is 0.1%. Human umbilical vein endothelial cells (HUVEC) were purchased from Cambrex Co. (East Rutherford, N.J., USA) and maintained in endothelial growth medium (EGM) supplemented with 2% FBS, 0.1% EGF, 0.1% hydrocortisone, 0.1% GA-1000, and 0.4% BBE. Morphogenesis assay on Matrigel was performed according to the manufacturer's instructions (Chemicon International). The ECMatrix™ kit consists of laminin, collagen type IV, heparan sulfate, proteoglycans, entactin, and nidogen. It also contains various growth factors (TGF-beta, FGF) and proteolytic enzymes (plasminogen, tPA, and MMPs) that are normally produced in EHS tumors. The incubation condition was optimized for maximal tube-formation as follows: 50 μl of EC Matrix™ was suitably diluted in a ratio 9:1 with 10× diluent buffer and used to coat the 96-well plate. The coated plates were incubated at 37° C. for 1 hr to allow the Matrix solution to solidify. HUVECs were cultured for 24 h in EGM with 2% FBS, trypsinized and re-suspended in the growth medium. […]
The efficiency of Mebendazole to inhibit the VEGFR2 kinase was measured by monitoring the ability of HUVECs to form networks.
For data set [3], the target named is VEGFR2 (Homo sapiens, UniProt P35968). The note with it: read-out: VEGFR2 kinase activity IC50; 450 uM ATP, 60 minutes at room temperature, duplicate wells.
VEGFR2, sequence (P35968 20-1356, species assumed): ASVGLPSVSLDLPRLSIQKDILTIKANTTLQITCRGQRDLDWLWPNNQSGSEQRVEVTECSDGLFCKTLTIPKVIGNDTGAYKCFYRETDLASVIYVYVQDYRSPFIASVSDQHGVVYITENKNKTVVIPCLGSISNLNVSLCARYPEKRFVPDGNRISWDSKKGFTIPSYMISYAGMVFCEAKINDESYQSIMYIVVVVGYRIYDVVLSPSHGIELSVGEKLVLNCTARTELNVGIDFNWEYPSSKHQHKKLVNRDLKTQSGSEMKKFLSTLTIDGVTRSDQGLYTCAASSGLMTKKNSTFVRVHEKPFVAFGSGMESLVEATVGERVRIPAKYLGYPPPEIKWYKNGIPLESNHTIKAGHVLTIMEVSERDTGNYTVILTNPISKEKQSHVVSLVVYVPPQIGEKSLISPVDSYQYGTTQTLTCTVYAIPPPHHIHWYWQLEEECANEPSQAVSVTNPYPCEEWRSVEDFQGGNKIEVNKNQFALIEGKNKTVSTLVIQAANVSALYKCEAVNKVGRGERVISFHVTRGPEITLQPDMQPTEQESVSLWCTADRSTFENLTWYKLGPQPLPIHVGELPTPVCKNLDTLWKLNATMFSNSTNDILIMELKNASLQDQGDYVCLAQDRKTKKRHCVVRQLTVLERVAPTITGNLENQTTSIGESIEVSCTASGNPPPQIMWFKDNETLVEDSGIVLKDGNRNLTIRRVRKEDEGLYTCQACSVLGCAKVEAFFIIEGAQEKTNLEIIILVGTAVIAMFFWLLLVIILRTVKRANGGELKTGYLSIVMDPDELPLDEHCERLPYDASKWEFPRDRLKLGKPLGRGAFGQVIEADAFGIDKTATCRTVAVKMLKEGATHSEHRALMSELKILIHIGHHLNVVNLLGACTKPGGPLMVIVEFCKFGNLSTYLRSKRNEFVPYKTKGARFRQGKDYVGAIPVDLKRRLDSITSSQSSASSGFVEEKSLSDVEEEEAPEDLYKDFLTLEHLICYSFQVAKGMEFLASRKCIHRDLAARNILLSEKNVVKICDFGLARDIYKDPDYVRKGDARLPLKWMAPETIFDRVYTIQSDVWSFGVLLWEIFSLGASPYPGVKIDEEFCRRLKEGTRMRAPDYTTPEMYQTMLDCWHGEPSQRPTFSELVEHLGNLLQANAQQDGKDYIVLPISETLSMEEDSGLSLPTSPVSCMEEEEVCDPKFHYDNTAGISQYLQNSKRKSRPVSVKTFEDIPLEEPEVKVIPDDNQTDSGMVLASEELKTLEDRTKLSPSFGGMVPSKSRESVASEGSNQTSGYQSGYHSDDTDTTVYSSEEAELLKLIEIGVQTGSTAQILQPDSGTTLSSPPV
Procedure: The VEGFR2 kinase assay was performed by using the Caliper LabChip 3000 and a 12-sipper LabChip. […] The off-chip incubation mobility-shift kinase assay uses a microfluidic chip to measure the conversion of a fluorescent peptide substrate to a phosphorylated product. The reaction mixture, from a microtiter well plate, is introduced through a capillary sipper onto the chip, where the nonphosphorylated substrate and phosphorylated product are separated by electrophoresis and detected via laser-induced fluorescence.
The assay reaction is: Fluorescein-peptide+ATP→fluorescein-phosphopeptide+ADP, which is measured by charge separation of phosphorylated product and unphosphorylated substrate. […] Following addition of ATP, samples were incubated for 60 minutes at room temperature and the reaction was terminated by the addition of stop buffer containing 100 mM HEPES (pH 7.5), 7 mM EDTA, 0.015% Brij-35, 4% DMSO. Phosphorylated product and unphosphorylated substrate were separated by charge using electrophoretic mobility shift. The product formed is compared to control wells to determine inhibition or enhancement of enzyme activity.
IC50 curves were generated using GraphPad 5 and a standard 4-parameter non-linear regression model (log [inhibitor] vs response−variable slope). Data points correspond to the averages of duplicate wells, and error bars represent the mean±replicate % activity.
The conditions of data set [4]: rats; cited from earlier work.
Data set [5] has as its system MDA-MB-231 invasive breast cancer cell line. Briefly: Growth inhibition of MDA-MB-231 cells, MTS assay. In kind it is cell-based. Conditions: Homo sapiens, 48 hrs exposure. On the procedure:
MDA-MB-231 cells were seeded at 4000 cells/well in a 96 well plate. […] Three wells per concentration were treated 24 h post seeding, and the MTS assay was performed 48 h post treatment. The CellTiter96 Aqueous Non-Radioactive Cell Proliferation Assay kit (Promega) was used according to the manufacturer's recommendations. The absorbance values were measured at 490 nm and viable cells presented as a percentage of the absorbance of DMSO-only treated cells. IC50 and R^2 values were calculated with the Graphpad Prism software.

The conditions of data set [6]: humans; cited from earlier work.

Data on 4 molecules can be found in patent US20150324546A1, “METHOD FOR PREDICTING DRUG-TARGET INTERACTIONS AND USES FOR DRUG REPOSITIONING” (GEORGETOWN UNIVERSITY, priority 2012, published 2015).

Where two headings read alike, the source gives them in different places.

Turning to `CCCSc1ccc2nc(NC(=O)OC)[nH]c2c1` [Albendazole], the Inhibition of angiogenesis result in data set [1] is given as “inhibit angiogenesis”. `COC(=O)Nc1nc2ccc(C(=O)c3ccccc3)cc2[nH]1` [Mebendazole]: the IC50 worked out at 8.8 µM in data set [2] and 3.6 µM in data set [3]. Regarding `Cc1ccc(-c2cc(C(F)(F)F)nn2-c2ccc(S(N)(=O)=O)cc2)cc1` [celecoxib], the Circulating levels in data set [4] and in data set [6] was 1 to 10 µM in each case. Besides, in data set [5], the midpoint of inhibition, the IC50, lay at 40 µM. Turning to `Cc1ccc(C)c(-c2cc(C(F)(F)F)nn2-c2ccc(S(N)(=O)=O)cc2)c1` [dimethyl celecoxib], the IC50 in data set [5] worked out at 36 µM.
